Test results as given in patent US20060292158A1, “Method for the treatment of cancer using a novel pharmaceutical composition containing at least one dolastatin 10 derivative” (priority 2004, published 2006).
Where two headings read alike, the source gives them in different places.

Key:
[1] = system: KPL-4 human breast carcinoma xenograft; experiment: Antitumor activity in KPL-4 orthotopic xenograft in athymic nude mice, combination with pertuzumab (Example 2); format: in vivo; settings: monotherapy 3, 4 or 6 mg/kg; day 21
Procedure: The KPL-4 human breast carcinoma cell line was kindly donated by Prof. Kurebayashi, Kawasaki Medical Center. The cells were cultured in Dulbecco's MEM (Sigma Chemical Co.) supplemented with 5% (v/v) fetal bovine serum (Roche Diagnostics).
One hundred (100) 5-week-old female athymic nude mice (BALB/c nu/nu) were purchased from Charles River Japan, Inc. (Yokohama, Japan). The mice were housed in an air-conditioned room (temperature 22±2° C., relative humidity 55±10%) under 12 h light/dark cycles. The mice were given sterilized CE-2 and tap water with 25μg/mL gentamycin ad libitum. […]
The In vivo evaluation procedure for anticancer drugs was based on methods described by Plowman, et al. (1997) for xenograft models. […] The tumor volume and body weight of each mouse were measured twice a week. […] One week after the final injection, tumor growth inhibition (TGI) was calculated using the formula (1-T/C)×100 (%), where T (treated group) and C (control group) represent the mean tumor volume change. ED50 values were calculated from values of tumor growth inhibition on day 21 using the XL fit program. […]
Packaged software (SAS preclinical package version 5.0, SAS Institute Japan, Ltd.) was used for the statistical analysis. […] ED50s were calculated from values of tumor growth inhibition percentage using XL fit program #509 (MS Excel Add-In: XLfit3 Version 3.0.5 Build 12, ID Business Solutions Ltd.)

[2] = system: Calu-6 human lung cancer xenograft; format: in vivo; settings: day 32 after inoculation
Procedure: The Calu-6 human lung carcinoma cell line was purchased from American Type Culture Collection (MD, U.S.A.). The cells were cultured in Eagle's MEM (Sigma-Aldrich corporation, MO, U.S.A.) supplemented with 0.1 milli mol/L Non-essential amino acids (Invitrogen corporation, CA, U.S.A.), 1 milli mol/L sodium pyruvate (Invitrogen corporation, CA, U.S.A.), and 10% (v/v) fetal bovine serum (Roche Diagnostics KK, Tokyo, Japan).
60 of 5-week-old male athymic nude mice (BALB/c nu/nu) were purchased from Charles River Japan, Inc. (Yokohama, Japan). All mice were kept for 8 days in the animal facility of Kamakura Research Laboratories of Chugai Pharmaceutical Co., Ltd. before subjection to the experiment.
The title compound was synthesized at Kamakura Research Laboratories of Chugai Pharmaceutical Co., Ltd. Irinotecan (Topotecin™, lot. No. EQAZF13) was obtained from Daiichi Pharmaceutical Co., Ltd. (Tokyo, Japan). The title compound was dissolved in dimethyl sulfoxide (DMSO) and diluted into 2.5 % DMSO solution with saline (For Injection; Ohtsuka Pharmaceutical Industry Co., Ltd., Tokushima, Japan) at the date of administration. Irinotecan was diluted with saline at the date of administration.
The in vivo evaluation procedure for anticancer drugs was based on the methods described by Plowman, et al. (1997) for xenograft models. See, “Anticancer Drug Development Guide: Preclinical Screening, Clinical Trials, and Approval, Teicher B (ed) pp. 101-125, specifically Chap. 6, “Human Tumor Xenograft Models in NCI Drug Development”, hereby incorporated by reference. A single cell suspension of Calu-6 (5.7×10^6 cells per mouse) was inoculated subcutaneously into the right flank of each mouse. The tumor volume was estimated by using the equation ab^2/2, where a and b represent tumor length and width, respectively. Mice bearing tumors of between 181 and 326 mm^3 were selected on day 11 after tumor inoculation and were randomly divided into 10 groups, consisting of 5 mice each. […] Drug administration was initiated after mice were randomized and divided into groups. The tide compound (0.375 mg/kg; 0.75 mg/kg; 1.5 mg/kg or 3 mg/kg), irinotecan (80 mg/kg) and each vehicles were administered intravenously. Tumor volume and body weight of each mouse were measured twice a week. […] Tumor growth inhibition was calculated by using the equation (1-ΔT/ΔC)×100, where ΔT represents the tumor volume difference from the initial treatment date of treated group and ΔC represents the tumor volume difference from the initial treatment date of vehicle group.

Structure (SMILES): CC[C@H](C)[C@@H]([C@@H](CC(=O)N1CCC[C@H]1[C@H](SC)[C@@H](C)C(=O)N(C)CCc1cccc(O)c1)OC)N(C)C(=O)[C@@H](NC(=O)[C@H](C(C)C)N(C)C)C(C)C [compound of formula (I-A), N-[1-({1-sec-Butyl-4-[2-(2-{[2-(3-hydroxy-phenyl)-ethyl]-methyl-carbamoyl}-1-methylsulfanyl-propyl)-pyrrolidin-1-yl]-2-methoxy-4-oxo-butyl}-methyl-carbamoyl)-2-methyl-propyl]-2-dimethylamino-3-methyl-butyramide]
- volume of tumor in comparison with control [1]: decreased strongly
- tumor growth inhibition ([2]; 0.375 mg/kg i.v. weekly x3): 11%
- tumor growth inhibition ([2]; 0.75 mg/kg i.v. weekly x3): 21%
- tumor growth inhibition ([2]; 1.5 mg/kg i.v. weekly x3): 41%
- tumor growth inhibition ([2]; 3 mg/kg i.v. weekly x3): 117%
